From US11572564B2, “Microorganisms for producing 1,4-butanediol and methods related thereto” (priority 2011, dated 2023)

Assays:
[1] = 20° C. and 1 atm; cited from earlier work
[2] = test system: E. coli; experiment: E. coli CO tolerance experiment (anaerobic growth with saturating CO); assay type: cell-based; conditions: levels achievable at normal atmospheric pressure
Method: To test whether or not E. coli can grow anaerobically in the presence of saturating amounts of CO, cultures were set up in 120 ml serum bottles with 50 ml of Terrific Broth medium (plus reducing solution, NiCl2, Fe(II)NH4SO4, cyanocobalamin, IPTG, and chloramphenicol) as described above for anaerobic microbiology in small volumes. One half of these bottles were equilibrated with nitrogen gas for 30 min. and one half was equilibrated with CO gas for 30 min. An empty vector (pZA33) was used as a control, and cultures containing the pZA33 empty vector as well as both ACS90 and ACS91 were tested with both N2 and CO. All were inoculated and grown for 36 hrs with shaking (250 rpm) at 37° C. […] The bulk of the observed growth occurred overnight with a long lag.

For [C-]#[O+] [CO], the maximum water solubility [1] is listed as 970 µM and the “sensitivity of laboratory strains of E. coli to CO” value [2] is listed as “insensitive”.
